Assay results from ChEMBL document CHEMBL3745679, “Identification and characterization of natural microbial products that alter the free d-aspartate content of mammalian cells” (2016).
Calls of active or inactive are those of the source.

What was measured:
PC-12 [1] = assay: Inhibition of D-aspartate biosynthesis in rat PC12 cells assessed as reduction of total D-aspartate content at 0.2 uM measured at 16 hrs by O-phthalaldehyde/N-acetyl-L-cysteine derivatization technique-based HPLC analysis relative to vehicle-treated control; type: functional, cell-based
PC-12 [2] = assay: Inhibition of D-aspartate biosynthesis in rat PC12 cells assessed as reduction of total D-aspartate content at 0.2 uM measured at 1 to 6 hrs by O-phthalaldehyde/N-acetyl-L-cysteine derivatization technique-based HPLC analysis relative to vehicle-treated control; type: functional, cell-based
HEK293 = assay: Increase in intracellular D-aspartate content in HEK293 cells at 5 ug after 24 hrs by O-phthalaldehyde/N-acetyl-L-cysteine derivatization technique-based HPLC analysis relative to total aspartate (reference value: 7.38 +/- 1.9%); type: functional, Homo sapiens
PC-12 [3] = assay: Inhibition of D-aspartate biosynthesis in rat PC12 cells assessed as reduction of intracellular D-aspartate level after 24 hrs by O-phthalaldehyde/N-acetyl-L-cysteine derivatization technique-based HPLC analysis; type: functional, cell-based
PC-12 [4] = assay: Effect on L-aspartate biosynthesis in rat PC12 cells assessed as effect on total L-aspartate level up to 0.2 uM after 24 hrs by O-phthalaldehyde/N-acetyl-L-cysteine derivatization technique-based HPLC analysis; type: functional, cell-based
PC-12 [5] = assay: Inhibition of D-aspartate biosynthesis in rat PC12 cells assessed as effect on intracellular D-aspartate content at 0.2 uM incubated up to 16 hrs by O-phthalaldehyde/N-acetyl-L-cysteine derivatization technique-based HPLC analysis relative to vehicle-treated control; type: functional, cell-based
PC-12 [6] = assay: Inhibition of D-aspartate biosynthesis in rat PC12 cells assessed as reduction of D-aspartate level in cell culture medium after 24 hrs by O-phthalaldehyde/N-acetyl-L-cysteine derivatization technique-based HPLC analysis; type: functional
PC-12 [7] = assay: Effect on L-aspartate biosynthesis in rat PC12 cells assessed as effect on intracellular L-aspartate level up to 0.2 uM after 24 hrs by O-phthalaldehyde/N-acetyl-L-cysteine derivatization technique-based HPLC analysis; type: functional, cell-based
PC-12 [8] = assay: Effect on L-aspartate biosynthesis in rat PC12 cells assessed as effect on L-aspartate level in cell culture medium up to 0.2 uM after 24 hrs by O-phthalaldehyde/N-acetyl-L-cysteine derivatization technique-based HPLC analysis; type: functional
PC-12 [9] = assay: Inhibition of D-aspartate biosynthesis in rat PC12 cells assessed as reduction of D-aspartate content in cell culture medium at 0.2 uM measured at 6 to 12 hrs by O-phthalaldehyde/N-acetyl-L-cysteine derivatization technique-based HPLC analysis relative to vehicle-treated control; type: functional
PC-12 [10] = assay: Inhibition of D-aspartate biosynthesis in rat PC12 cells assessed as reduction of intracellular D-aspartate content up to 0.5 uM after 24 hrs by O-phthalaldehyde/N-acetyl-L-cysteine derivatization technique-based HPLC analysis; type: functional, cell-based
PC-12 [11] = assay: Effect on L-aspartate biosynthesis in rat PC12 cells assessed as effect on intracellular L-aspartate content up to 0.5 uM after 24 hrs by O-phthalaldehyde/N-acetyl-L-cysteine derivatization technique-based HPLC analysis; type: functional, cell-based
PC-12 [12] = assay: Inhibition of D-aspartate biosynthesis in rat PC12 cells assessed as reduction of total D-aspartate level up to 0.5 uM after 24 hrs by O-phthalaldehyde/N-acetyl-L-cysteine derivatization technique-based HPLC analysis; type: functional, cell-based
PC-12 [13] = assay: Effect on L-aspartate biosynthesis in rat PC12 cells assessed as effect on total L-aspartate content up to 0.5 uM after 24 hrs by O-phthalaldehyde/N-acetyl-L-cysteine derivatization technique-based HPLC analysis; type: functional, cell-based
PC-12 [14] = assay: Inhibition of D-aspartate biosynthesis in rat PC12 cells assessed as reduction of intracellular D-aspartate content at 10 uM measured at 1 hr by O-phthalaldehyde/N-acetyl-L-cysteine derivatization technique-based HPLC analysis relative to vehicle-treated control; type: functional, cell-based
PC-12 [15] = assay: Inhibition of D-aspartate biosynthesis in rat PC12 cells assessed as reduction of total D-aspartate content at 10 uM measured at 1 to 3 hrs by O-phthalaldehyde/N-acetyl-L-cysteine derivatization technique-based HPLC analysis relative to vehicle-treated control; type: functional, cell-based
PC-12 [16] = assay: Effect on L-aspartate biosynthesis in rat PC12 cells assessed as effect on total L-aspartate level up to 10 uM after 24 hrs by O-phthalaldehyde/N-acetyl-L-cysteine derivatization technique-based HPLC analysis; type: functional, cell-based
PC-12 [17] = assay: Inhibition of D-aspartate biosynthesis in rat PC12 cells assessed as reduction of intracellular D-aspartate content at 10 uM measured at 3 to 16 hrs by O-phthalaldehyde/N-acetyl-L-cysteine derivatization technique-based HPLC analysis relative to vehicle-treated control; type: functional, cell-based
PC-12 [18] = assay: Inhibition of D-aspartate biosynthesis in rat PC12 cells assessed as reduction of total D-aspartate content at 10 uM measured at 6 to 16 hrs by O-phthalaldehyde/N-acetyl-L-cysteine derivatization technique-based HPLC analysis relative to vehicle-treated control; type: functional, cell-based
PC-12 [19] = assay: Inhibition of D-aspartate biosynthesis in rat PC12 cells assessed as reduction of total D-aspartate level after 24 hrs by O-phthalaldehyde/N-acetyl-L-cysteine derivatization technique-based HPLC analysis; type: functional, cell-based
PC-12 [20] = assay: Inhibition of D-aspartate biosynthesis in rat PC12 cells assessed as reduction of intracellular D-aspartate level up to 10 uM after 24 hrs by O-phthalaldehyde/N-acetyl-L-cysteine derivatization technique-based HPLC analysis; type: functional, cell-based
PC-12 [21] = assay: Inhibition of D-aspartate biosynthesis in rat PC12 cells assessed as reduction of D-aspartate level in cell culture medium up to 10 uM after 24 hrs by O-phthalaldehyde/N-acetyl-L-cysteine derivatization technique-based HPLC analysis; type: functional
PC-12 [22] = assay: Effect on L-aspartate biosynthesis in rat PC12 cells assessed as effect on intracellular L-aspartate level up to 10 uM after 24 hrs by O-phthalaldehyde/N-acetyl-L-cysteine derivatization technique-based HPLC analysis; type: functional, cell-based
PC-12 [23] = assay: Effect on L-aspartate biosynthesis in rat PC12 cells assessed as effect on L-aspartate level in cell culture medium up to 10 uM after 24 hrs by O-phthalaldehyde/N-acetyl-L-cysteine derivatization technique-based HPLC analysis; type: functional

CO[C@@H](C(=O)[C@H](O)[C@@H](C)O)[C@H]1Cc2cc3cc(O[C@H]4C[C@@H](O[C@@H]5C[C@H](O)[C@@H](O)[C@H](C)O5)[C@H](O)[C@@H](C)O4)c(C)c(O)c3c(O)c2C(=O)[C@@H]1O[C@H]1C[C@@H](O[C@@H]2C[C@H](O[C@H]3C[C@](C)(O)[C@H](O)[C@@H](C)O3)[C@@H](O)[C@H](C)O2)[C@H](O)[C@@H](C)O1
inactive: inhibition (PC-12 [2]) | Activity (PC-12 [4]) | inhibition (PC-12 [5]) | Activity (PC-12 [7]) | Activity (PC-12 [8])
9.33%: Activity (HEK293)
active: inhibition (PC-12 [1]) | inhibition (PC-12 [3]) Dose-dependent effect | inhibition (PC-12 [6]) Dose-dependent effect | inhibition (PC-12 [9])

CC(C)[C@H]1CC[C@@]2(CO2)[C@H]2C(=O)OCC(C(=O)O)=C[C@H]12
0.291%: Activity (HEK293)
inactive: inhibition (PC-12 [10]) | Activity (PC-12 [11]) | inhibition (PC-12 [12]) | Activity (PC-12 [13])

COC1=C2C[C@@H](C)C[C@H](OC)[C@H](O)[C@@H](C)/C=C(\C)[C@H](OC(N)=O)[C@@H](OC)/C=C\C=C(/C)C(=O)NC(=CC1=O)C2=O [GELDANAMYCIN]
inactive: inhibition (PC-12 [14]) | inhibition (PC-12 [15]) | Activity (PC-12 [16]) | Activity (PC-12 [22]) | Activity (PC-12 [23])
15.8%: Activity (HEK293)
active: inhibition (PC-12 [17]) | inhibition (PC-12 [18]) | inhibition (PC-12 [19]) Dose-dependent effect | inhibition (PC-12 [20]) | inhibition (PC-12 [21])
